From PubChem BioAssay (NCI)
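Briefly, cells in 96-well plates were exposed to five compound concentrations for 48 h, and endpoints were estimated by linear interpolation. TGI: concentration producing complete growth inhibition.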

What follows are compounds tested on OVCAR-8 ovarian (assay: DTP human tumour cell line panel, 48 h).

SMILES | TGI
COc1cc2c(cc1OC)C1[C@@H](c3ccccc3)OCN1CC2 (stereo not given in full) | > 100 µM

These compounds were tested on RXF-631 renal (assay: DTP human tumour cell line panel, 48 h).

SMILES | TGI
COC1OC(COC(C)=O)C(OC(C)=O)C(OC(C)=O)C1NC(=O)N(CCCl)N=O (stereo not given) | > 100 µM
CNc1ccccc1-c1nc2ccccc2c(=O)o1 | > 100 µM
COc1cc(OC)c2c(c1)C(=O)C(CC1(C)OCCCO1)=CC2=O | 44.5 µM
Clc1cccc(Cl)c1C1SCc2nc3ccccc3n21 (stereo not given) | 41.7 µM
COc1cc2c(cc1OC)C1[C@@H](c3ccccc3)OCN1CC2 (stereo not given in full) | > 100 µM

What follows are compounds tested on DMS 273 small cell lung (assay: DTP human tumour cell line panel, 48 h).

SMILES | TGI
COC1OC(COC(C)=O)C(OC(C)=O)C(OC(C)=O)C1NC(=O)N(CCCl)N=O (stereo not given) | > 100 µM
CNc1ccccc1-c1nc2ccccc2c(=O)o1 | > 100 µM
COc1cc(OC)c2c(c1)C(=O)C(CC1(C)OCCCO1)=CC2=O | 22.5 µM
Clc1cccc(Cl)c1C1SCc2nc3ccccc3n21 (stereo not given) | > 100 µM
COc1cc2c(cc1OC)C1[C@@H](c3ccccc3)OCN1CC2 (stereo not given in full) | > 100 µM

Each compound was assayed on HOP-18 NSCLC (assay: DTP human tumour cell line panel, 48 h).

SMILES | TGI
COC1OC(COC(C)=O)C(OC(C)=O)C(OC(C)=O)C1NC(=O)N(CCCl)N=O (stereo not given) | > 100 µM
CNc1ccccc1-c1nc2ccccc2c(=O)o1 | > 100 µM
COc1cc(OC)c2c(c1)C(=O)C(CC1(C)OCCCO1)=CC2=O | 25.7 µM
Clc1cccc(Cl)c1C1SCc2nc3ccccc3n21 (stereo not given) | > 100 µM
COc1cc2c(cc1OC)C1[C@@H](c3ccccc3)OCN1CC2 (stereo not given in full) | > 100 µM

Each compound was assayed on SK-OV-3 ovarian (assay: DTP human tumour cell line panel, 48 h).

SMILES | TGI
COC1OC(COC(C)=O)C(OC(C)=O)C(OC(C)=O)C1NC(=O)N(CCCl)N=O (stereo not given) | > 100 µM
CNc1ccccc1-c1nc2ccccc2c(=O)o1 | > 100 µM
COc1cc(OC)c2c(c1)C(=O)C(CC1(C)OCCCO1)=CC2=O | 34.2 µM
Clc1cccc(Cl)c1C1SCc2nc3ccccc3n21 (stereo not given) | > 100 µM
COc1cc2c(cc1OC)C1[C@@H](c3ccccc3)OCN1CC2 (stereo not given in full) | > 100 µM

What follows are compounds tested on HOP-62 NSCLC (assay: DTP human tumour cell line panel, 48 h).

SMILES | TGI
COc1cc(OC)c2c(c1)C(=O)C(CC1(C)OCCCO1)=CC2=O | 33.4 µM
Clc1cccc(Cl)c1C1SCc2nc3ccccc3n21 (stereo not given) | > 100 µM
COc1cc2c(cc1OC)C1[C@@H](c3ccccc3)OCN1CC2 (stereo not given in full) | > 100 µM

These compounds were tested on UO-31 renal (assay: DTP human tumour cell line panel, 48 h).

SMILES | TGI
CNc1ccccc1-c1nc2ccccc2c(=O)o1 | > 100 µM
COc1cc(OC)c2c(c1)C(=O)C(CC1(C)OCCCO1)=CC2=O | 24.1 µM
Clc1cccc(Cl)c1C1SCc2nc3ccccc3n21 (stereo not given) | > 100 µM
COc1cc2c(cc1OC)C1[C@@H](c3ccccc3)OCN1CC2 (stereo not given in full) | > 100 µM

These compounds were tested on RXF 393 renal (assay: DTP human tumour cell line panel, 48 h).

SMILES | TGI
COC1OC(COC(C)=O)C(OC(C)=O)C(OC(C)=O)C1NC(=O)N(CCCl)N=O (stereo not given) | > 100 µM
COc1cc(OC)c2c(c1)C(=O)C(CC1(C)OCCCO1)=CC2=O | 10.4 µM
Clc1cccc(Cl)c1C1SCc2nc3ccccc3n21 (stereo not given) | > 100 µM
COc1cc2c(cc1OC)C1[C@@H](c3ccccc3)OCN1CC2 (stereo not given in full) | > 100 µM

Each compound was assayed on LOX IMVI melanoma (assay: DTP human tumour cell line panel, 48 h).

SMILES | TGI
COC1OC(COC(C)=O)C(OC(C)=O)C(OC(C)=O)C1NC(=O)N(CCCl)N=O (stereo not given) | > 100 µM
CNc1ccccc1-c1nc2ccccc2c(=O)o1 | > 100 µM
COc1cc(OC)c2c(c1)C(=O)C(CC1(C)OCCCO1)=CC2=O | 12.8 µM
Clc1cccc(Cl)c1C1SCc2nc3ccccc3n21 (stereo not given) | > 100 µM
COc1cc2c(cc1OC)C1[C@@H](c3ccccc3)OCN1CC2 (stereo not given in full) | > 100 µM

The compounds below were run on 786-0 renal (assay: DTP human tumour cell line panel, 48 h).

SMILES | TGI
COC1OC(COC(C)=O)C(OC(C)=O)C(OC(C)=O)C1NC(=O)N(CCCl)N=O (stereo not given) | > 100 µM
COc1cc(OC)c2c(c1)C(=O)C(CC1(C)OCCCO1)=CC2=O | 21.5 µM
Clc1cccc(Cl)c1C1SCc2nc3ccccc3n21 (stereo not given) | > 100 µM
COc1cc2c(cc1OC)C1[C@@H](c3ccccc3)OCN1CC2 (stereo not given in full) | > 100 µM

What follows are compounds tested on SK-MEL-2 melanoma (assay: DTP human tumour cell line panel, 48 h).

SMILES | TGI
COC1OC(COC(C)=O)C(OC(C)=O)C(OC(C)=O)C1NC(=O)N(CCCl)N=O (stereo not given) | > 100 µM
CNc1ccccc1-c1nc2ccccc2c(=O)o1 | > 100 µM
COc1cc(OC)c2c(c1)C(=O)C(CC1(C)OCCCO1)=CC2=O | 30.1 µM
COc1cc2c(cc1OC)C1[C@@H](c3ccccc3)OCN1CC2 (stereo not given in full) | > 100 µM

The compounds below were run on TK-10 renal (assay: DTP human tumour cell line panel, 48 h).

SMILES | TGI
COC1OC(COC(C)=O)C(OC(C)=O)C(OC(C)=O)C1NC(=O)N(CCCl)N=O (stereo not given) | > 100 µM
CNc1ccccc1-c1nc2ccccc2c(=O)o1 | > 100 µM
COc1cc(OC)c2c(c1)C(=O)C(CC1(C)OCCCO1)=CC2=O | 25.1 µM
Clc1cccc(Cl)c1C1SCc2nc3ccccc3n21 (stereo not given) | > 100 µM
COc1cc2c(cc1OC)C1[C@@H](c3ccccc3)OCN1CC2 (stereo not given in full) | > 100 µM

What follows are compounds tested on HOP-92 NSCLC (assay: DTP human tumour cell line panel, 48 h).

SMILES | TGI
COc1cc(OC)c2c(c1)C(=O)C(CC1(C)OCCCO1)=CC2=O | 7.73 µM
Clc1cccc(Cl)c1C1SCc2nc3ccccc3n21 (stereo not given) | > 100 µM
COc1cc2c(cc1OC)C1[C@@H](c3ccccc3)OCN1CC2 (stereo not given in full) | > 100 µM

What follows are compounds tested on SN12C renal (assay: DTP human tumour cell line panel, 48 h).

SMILES | TGI
COC1OC(COC(C)=O)C(OC(C)=O)C(OC(C)=O)C1NC(=O)N(CCCl)N=O (stereo not given) | > 100 µM
CNc1ccccc1-c1nc2ccccc2c(=O)o1 | > 100 µM
COc1cc(OC)c2c(c1)C(=O)C(CC1(C)OCCCO1)=CC2=O | 27.2 µM
Clc1cccc(Cl)c1C1SCc2nc3ccccc3n21 (stereo not given) | > 100 µM
COc1cc2c(cc1OC)C1[C@@H](c3ccccc3)OCN1CC2 (stereo not given in full) | > 100 µM

These compounds were tested on SNB-78 CNS (assay: DTP human tumour cell line panel, 48 h).

SMILES | TGI
COC1OC(COC(C)=O)C(OC(C)=O)C(OC(C)=O)C1NC(=O)N(CCCl)N=O (stereo not given) | > 100 µM
CNc1ccccc1-c1nc2ccccc2c(=O)o1 | > 100 µM
COc1cc(OC)c2c(c1)C(=O)C(CC1(C)OCCCO1)=CC2=O | 26.6 µM
Clc1cccc(Cl)c1C1SCc2nc3ccccc3n21 (stereo not given) | > 100 µM
COc1cc2c(cc1OC)C1[C@@H](c3ccccc3)OCN1CC2 (stereo not given in full) | > 100 µM

The compounds below were run on KM12 colon (assay: DTP human tumour cell line panel, 48 h).

SMILES | TGI
COC1OC(COC(C)=O)C(OC(C)=O)C(OC(C)=O)C1NC(=O)N(CCCl)N=O (stereo not given) | > 100 µM
CNc1ccccc1-c1nc2ccccc2c(=O)o1 | > 100 µM
COc1cc(OC)c2c(c1)C(=O)C(CC1(C)OCCCO1)=CC2=O | 28.5 µM
Clc1cccc(Cl)c1C1SCc2nc3ccccc3n21 (stereo not given) | > 100 µM
COc1cc2c(cc1OC)C1[C@@H](c3ccccc3)OCN1CC2 (stereo not given in full) | > 100 µM

These compounds were tested on HT29 colon (assay: DTP human tumour cell line panel, 48 h).

SMILES | TGI
COC1OC(COC(C)=O)C(OC(C)=O)C(OC(C)=O)C1NC(=O)N(CCCl)N=O (stereo not given) | > 100 µM
COc1cc(OC)c2c(c1)C(=O)C(CC1(C)OCCCO1)=CC2=O | 28.9 µM
